Data taken from patent publication US20240426776A1, “RAPID DIFFERENTIATION OF ANTIBIOTIC-SUSCEPTIBLE AND -RESISTANT BACTERIA THROUGH MEDIATED EXTRACELLULAR ELECTRON TRANSFER” (priority 2021, published 2024).
≈ marks a conversion by molar mass, not a printed value. Like-named read-outs stand apart in the source and are kept apart here. Marks after values point to notes of the source that are not given here.

How the values were obtained:
[1] = test system: Staphylococcus aureus (strains 29213 and 43300); assay: Microdilution antibiotic susceptibility assay (MIC, CLSI guidelines); type: cell-based; conditions: for MIC: Staphylococcus aureus, MH media, oxacillin: 30° C., 18-24 h, 2% NaCl, read-out: estimated minimum inhibitory concentration from this study
Method: (§1) Testing for S. aureus susceptibility to oxacillin differed with incubation at 30° C. for 18-24 h in MH media supplemented with 2% NaCl.
(§2) Values listed in Table 2 below include the estimated minimum inhibitory concentration from this study (μg/mL), the determination of(S) sensitive or (R) resistant microbes according to CLSI criteria, and the CLSI guidelines (μg/mL) for the species being tested. Empty cells were not evaluated.

[2] = test system: Gram-negative 1 AR55 and Gram-negative 2 AR58; assay: READAS operator blinded test; type: cell-based; conditions: for ASIn: imipenem increased from 2× to 20× (12 to 120 μg/mL), OD600=0.1; for READAS susceptibility (first symbol of cell): imipenem up to 20× (120 μg/mL)
Method: Tests were conducted for which the species or resistance phenotype was not known beyond the fact that one set was a Gram-positive and the other Gram-negative, and the antibiotics to be tested were oxacillin and imipenem, respectively. The isolates were provided as coded streak plates. Because the species were unknown, the breakpoint concentration of oxacillin and imipenem were estimated from the known breakpoints of the four previously tested strains (as shown in Table 1; 6 μg/mL for oxacillin, S. aureus and 6 μg/mL imipenem for Gram-negative strains). Following the decision methodology for determining antibiotic susceptibility and resistance of READAS, the strains were first tested with 2× the resistance breakpoint concentration (12 μg/mL oxacillin or imipenem) and the ASI2 was measured. This was increased up to 24× the resistance breakpoint concentration. If ASI2≥0.4 then the strain was considered susceptible. […] If neither strain achieved an ASI2≥0.4, 24× the resistance breakpoint concentration was tested and the ASI24 was measured.
As another example method of operation, operator blinded tests were conducted using susceptible and resistant strains of Gram-positive and -negative bacteria. Because the species identification was unknown, […] oxacillin was chosen as the estimated resistance breakpoint for the Gram-positive strain and 6 μg/mL imipenem was initially chosen as the resistance breakpoint for the Gram-negative strain. The stains selected for this example method of operation include Gram-positive 1 ATCC 29213, Gram-positive 2 BAA-1026, Gram-negative 1 AR55 and Gram-negative 2 AR58 with cultures of OD600=0.1, for simplicity.
(§3) Both Gram-positive strains were correctly classified using 2×(12 μg/mL oxacillin) in <120 min (97±45 min and 103±33 min). The Gram-negative strains were also correctly classified after increasing concentrations of imipenem from 2× to 20×(12 to 120 μg/mL imipenem). […] These phenotypic results were confirmed with results of standard procedure known to those skilled in the art and are included in Table 4 below, wherein READAS(S) susceptibility was defined by an ASIn≥0.4; (R) resistant was defined by an ASIn<0.4; analysis time shown in minutes. The standard procedure established susceptibility or resistance, MIC in μg/mL, and analysis time shown in hours.

[3] = test system: Klebsiella pneumoniae (strains 34 and 115); assay: microbe, parasite or virus in culture; conditions: for MIC: Klebsiella pneumoniae, MH media, 16-18 h, 37° C.
Method: as §1, §2

[4] = test system: Gram-negative 1 AR55 and Gram-negative 2 AR58; assay: Standard procedure confirming blinded test (susceptibility, MIC, analysis time); type: cell-based; set-up: key to Standard procedure susceptibility or resistance (second symbol of cell): S: The standard procedure established susceptibility or resistance; R: The standard procedure established susceptibility or resistance
Method: as §3

Row | SMILES | MIC ([1]; strain 29213) [µg/mL] | MIC ([1]; strain 43300) [µg/mL] | sensitive or resistant according to CLSI criteria ([1]; strain 29213) | sensitive or resistant according to CLSI criteria ([1]; strain 43300) | ASIn ([2]; Gram-negative 1 (AR55)) | READAS susceptibility (first symbol of cell) ([2]; Gram-negative 1 (AR55)) | ASIn ([2]; Gram-negative 2 (AR58)) | READAS susceptibility (first symbol of cell) ([2]; Gram-negative 2 (AR58)) | MIC ([3]; read-out: estimated minimum inhibitory concentration from this study, strain 34) [µg/mL] | MIC ([3]; read-out: estimated minimum inhibitory concentration from this study, strain 115) [µg/mL] | sensitive or resistant according to CLSI criteria ([3]; strain 34) | sensitive or resistant according to CLSI criteria ([3]; strain 115) | MIC ([4]; Gram-negative 1 (AR55)) [µg/mL] | Standard procedure susceptibility or resistance (second symbol of cell) ([4]; Gram-negative 1 (AR55)) | MIC ([4]; Gram-negative 2 (AR58)) [µg/mL] | Standard procedure susceptibility or resistance (second symbol of cell) ([4]; Gram-negative 2 (AR58))
1 | NC[C@H]1O[C@H](O[C@H]2[C@H](O)[C@@H](O[C@H]3O[C@H](CO)[C@@H](O)[C@H](N)[C@H]3O)[C@H](N)C[C@@H]2N)[C@H](N)C[C@@H]1O [Tobramycin, tobramycin] | 1 (≈ 2.14 µM) | 128 (≈ 274 µM) | S | R |  |  |  |  |  |  |  |  |  |  |  | 
2 | C[C@@H](O)[C@H]1C(=O)N2C(C(=O)O)=C(SCCN=CN)C[C@H]12 [Imipenem, imipenem] |  |  |  |  | 0.1 ± 0.23^c | R/R ((R) resistant was defined by an ASIn<0.4) | 0.99 ± 0.01^c | S/S (READAS(S) susceptibility was defined by an ASIn≥0.4) | 2 (≈ 6.68 µM) | 64 (≈ 214 µM) | S | R | ≥ 16 | R/R | ≤ 0.25 | S/S
